Activity calls are given as the source filed them. How the calls were made is not given here.
Target: Chaperone protein DnaK (Escherichia coli (strain K12)) (UniProt P0A6Y8)
Assay: E. coli DnaK SBD ligand binding – biophysical, NMR, chaperone (AID 1033)
Details: Purified DnaK SBD

Chaperone protein DnaK (Escherichia coli (strain K12)), sequence (P0A6Y8 whole entry, looked up): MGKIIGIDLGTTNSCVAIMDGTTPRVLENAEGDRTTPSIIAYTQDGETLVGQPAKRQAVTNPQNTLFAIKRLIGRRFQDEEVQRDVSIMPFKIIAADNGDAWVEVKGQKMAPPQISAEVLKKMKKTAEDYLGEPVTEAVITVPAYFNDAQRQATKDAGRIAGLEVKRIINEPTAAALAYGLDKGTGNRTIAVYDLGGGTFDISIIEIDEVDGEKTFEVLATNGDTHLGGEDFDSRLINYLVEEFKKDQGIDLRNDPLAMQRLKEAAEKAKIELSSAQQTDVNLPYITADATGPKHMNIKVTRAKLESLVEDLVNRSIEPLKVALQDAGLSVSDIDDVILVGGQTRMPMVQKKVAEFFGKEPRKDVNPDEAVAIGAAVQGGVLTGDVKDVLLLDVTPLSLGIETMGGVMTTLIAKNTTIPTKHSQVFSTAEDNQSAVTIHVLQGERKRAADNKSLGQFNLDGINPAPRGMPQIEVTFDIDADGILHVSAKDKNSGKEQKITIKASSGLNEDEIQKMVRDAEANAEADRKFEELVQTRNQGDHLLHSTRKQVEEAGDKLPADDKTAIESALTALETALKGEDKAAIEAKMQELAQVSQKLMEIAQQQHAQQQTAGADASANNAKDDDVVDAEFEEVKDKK

| SMILES | Kd |
| --- | --- |
| Cc1cc(C(=O)NN2CCOCC2)c(C)o1 | > 4 mM (inactive) |
| NCc1cccc2nsnc12 | > 4 mM (inactive) |
| COc1cc2c(c(OC)c1OC)-c1ccc(OC)c(=O)cc1[C@@H](NC(C)=O)CC2 | > 4 mM (inactive) |
| Cc1nc2c(=O)[nH]c3ccccc3c2o1 | > 4 mM (inactive) |
| O=C(O)Cn1nnnc1-c1ccc(F)cc1 | > 4 mM (inactive) |
| CN(C)N1C(=O)C2C3C=CC(O3)C2C1=O (stereo not given) | > 4 mM (inactive) |
| NC(=O)Cn1nc(-c2ccc(F)cc2)ccc1=O | > 4 mM (inactive) |
| NC(=O)c1ccccc1NC(=O)c1cccnc1 | > 4 mM (inactive) |
| Nc1cc(F)cc(F)c1 | > 4 mM (inactive) |
| NC(=O)c1ccsc1NC(=O)c1cccnc1 | > 4 mM (inactive) |
| CC(=O)O[C@H]1CC[C@@]2(C)C(=CCC3C2CC[C@@]2(C)C3CC[C@@H]2C(C)CCCC(C)C)C1 (stereo not given in full) | > 4 mM (inactive) |
| Nc1nnc(SCc2ccccc2Cl)s1 | > 4 mM (inactive) |
| O=C(O)c1cccc2nsnc12 | > 4 mM (inactive) |
| O=C(Cc1ccc(F)cc1)Nc1ncccn1 | > 4 mM (inactive) |
| CC(=O)c1c(O)c(C)c(O)c2c1OC1=CC(=O)C(C(C)=O)C(=O)C12C (stereo not given) | > 4 mM (inactive) |
| CSc1nnc2ccc(-c3cccnc3)nn12 | > 4 mM (inactive) |
| COC(=O)c1scc(C)c1N | > 4 mM (inactive) |
| O=C(NCC1CCNCC1)c1ccccn1 | > 4 mM (inactive) |
| C[C@@H]1CC[C@H]2[C@@H](C)C(=O)O[C@@H]3OC4(C)CC[C@@H]1[C@]32OO4 | > 4 mM (inactive) |
| O=C(NC(=S)NC1CCSC1=O)c1ccco1 (stereo not given) | > 4 mM (inactive) |
| Cc1cc(C)n(S(=O)(=O)c2ccc(C(C)(C)C)cc2)n1 | > 4 mM (inactive) |
| COc1cccc(/C=C2/SC(N)=NC2=O)c1 | > 4 mM (inactive) |
| O=c1[nH]c(=O)n(-c2ccc(F)cc2)c(O)c1/C=C1/C=CC=N1 | > 4 mM (inactive) |

| SMILES | Kd |
| --- | --- |
| CN1C(=O)C2CC=C(Cl)CC2C1=O (stereo not given) | > 4 mM (inactive) |
| Cc1nc2cc(NC(=O)Nc3nccs3)ccc2n1C | > 4 mM (inactive) |
| Nc1ccc(C(=O)NCC2CCCO2)cc1 (stereo not given) | > 4 mM (inactive) |
| CC(C)=CCC[C@](C)(O)C1CC=C(C)CC1 (stereo not given in full) | > 4 mM (inactive) |
| Nc1csc(C(=O)O)c1 | > 4 mM (inactive) |
| C=C1C([C@]2(C)C(CC(=O)OC)[C@@](C)(COC(C)=O)OC(=O)C[C@@H]2OC(C)=O)[C@@H](OC=O)[C@H](OC(=O)C(OC(C)=O)C(C)CC)[C@@]2(C)[C@H](c3ccoc3)CC(=O)C12O (stereo not given in full) | > 4 mM (inactive) |
| COC1=CC(=O)C(O)=C/C1=C\C=C\c1ccccc1 | > 4 mM (inactive) |
| COc1cccc(C(=O)N2CCOCC2)c1 | > 4 mM (inactive) |
| S=c1oc(-c2ccncc2)nn1CCc1ccncc1 | > 4 mM (inactive) |
| O=C1C=CC(=O)c2c(O)cccc21 | > 4 mM (inactive) |
| CC(=O)O[C@@H]1CC2C(C)(C)C(=O)C3OC3[C@]2(C)C2CC[C@@]3(C)[C@H](c4ccoc4)OC(=O)C4OC43[C@@]21C (stereo not given in full) | > 4 mM (inactive) |
| Cc1cc(NC(=O)c2cccc(N3C(=O)CCC3=O)c2)no1 | > 4 mM (inactive) |
| O=S(=O)(NCc1ccco1)N1CCOCC1 | > 4 mM (inactive) |
| O=C1CNC(=O)N1Cc1ccc(F)cc1 | > 4 mM (inactive) |
| O=C(O)C1CN(Cc2ccccc2)CCO1 (stereo not given) | > 4 mM (inactive) |
| Cc1ccc(NC(=O)C(=O)Nc2ccccn2)cc1 | > 4 mM (inactive) |
| Cn1ncc(NC(=O)Nc2ccc(F)cc2F)c1C(N)=O | > 4 mM (inactive) |
| COc1ccc(N=C2NC(=O)CS2)cc1 | > 4 mM (inactive) |
| CNc1nc(N)c(C(=O)C(C)(C)C)s1 | > 4 mM (inactive) |
| O=c1c2ccccc2oc2ccc(O)cc12 | > 4 mM (inactive) |
| CC1(C)Cc2c(c(-c3ccco3)[nH]c(=O)c2C#N)CO1 | > 4 mM (inactive) |
| NC(=O)C1CCN(C(=O)c2ccccc2F)CC1 | > 4 mM (inactive) |
| CS(=O)(=O)N1CCN(c2ccccc2F)CC1 | > 4 mM (inactive) |

| SMILES | Kd |
| --- | --- |
| CCOC(=O)C1CCN(Cc2ccccc2)CC1 | > 4 mM (inactive) |
| NC(=O)c1ccc(NC(=O)c2ccco2)cc1 | > 4 mM (inactive) |
| O=C1CSC(=Nc2ccccc2[N+](=O)[O-])N1 | > 4 mM (inactive) |
| O=C(Nc1ccon1)c1sc2cc(F)ccc2c1Cl | > 4 mM (inactive) |
| CCSc1nc2ccccc2[nH]1 | > 4 mM (inactive) |
| CNC(=S)Nc1ccc(C(=O)O)cc1 | > 4 mM (inactive) |
| Cc1nnc(SCC(=O)NCc2ccccc2)[nH]c1=O | > 4 mM (inactive) |
| O=C(NC12CC3CC(CC(C3)C1)C2)c1cnccn1 | > 4 mM (inactive) |
| C=CCc1ccc(O)c(OC)c1 | > 4 mM (inactive) |
| COc1cc(OC)c2c(OC)c(-c3ccc4c(c3)OCO4)c(=O)oc2c1 | > 4 mM (inactive) |
| COc1cc(-c2nnc(NC(C)=O)o2)cc(OC)c1OC | > 4 mM (inactive) |
| NC(=O)C1CCN(c2ccc(Cl)nn2)CC1 | > 4 mM (inactive) |
| COC(=O)[C@H]1[C@H]2C[C@H]3c4[nH]c5ccccc5c4CCN3C[C@H]2CC[C@@H]1O | > 4 mM (inactive) |
| CC(C)CCCC(C)[C@H]1CCC2C3CC=C4CC(=O)CC[C@]4(C)C3CC[C@@]21C (stereo not given in full) | > 4 mM (inactive) |
| Cc1cccc(CSc2nncc(=O)[nH]2)c1 | > 4 mM (inactive) |
| Cc1nc2sc3c(c2c(=N)n1N)CC(C)(C)OC3 | > 4 mM (inactive) |
| CCC(C)C(=O)OC1[C@@H]2CC3=C4CC(=O)O[C@@H](c5ccoc5)[C@]4(C)CCC3C(C)(C2=O)[C@@H](CC(=O)OC)C1(C)C (stereo not given in full) | > 4 mM (inactive) |
| O=C1CNC(=O)/C1=C/c1ccc(O)cc1 | > 4 mM (inactive) |
| CC1CCC(N2CCN(c3ncccn3)CC2)CC1 (stereo not given) | > 4 mM (inactive) |
| O=C1COc2ccccc2C(=O)N1 | > 4 mM (inactive) |
| O=c1[nH]cnc2c1nnn2Cc1ccccc1 | > 4 mM (inactive) |
| Cc1noc(C)c1C(=O)NCc1ccco1 | > 4 mM (inactive) |
| Cc1ccc(-n2ncc(C#N)c2/N=C/N(C)C)cc1 | > 4 mM (inactive) |

| SMILES | Kd |
| --- | --- |
| Cc1cc(=O)[nH]c(N)n1 | > 4 mM (inactive) |
| Cc1cc(N2CCN(C)CC2)ncn1 | > 4 mM (inactive) |
| Cc1cc2c(nn1)CCc1nonc1-2 | > 4 mM (inactive) |
| NS(=O)(=O)c1ccc(NC(=O)C2CC2)cc1 | > 4 mM (inactive) |
| CNC(=S)Nc1cccc(C(=O)O)c1 | > 4 mM (inactive) |
| O=C1Cc2ccccc2N1c1ccccc1 | > 4 mM (inactive) |
| CC1=CC2C(CC1=O)C(C)=CCC2C(C)C (stereo not given) | > 4 mM (inactive) |
| O=C1CCC(C(=O)NCc2cccnc2)N1 (stereo not given) | > 4 mM (inactive) |
| CCN(CC)C(=O)c1n[nH]c(=O)c2ccccc12 | > 4 mM (inactive) |
| COc1ccc(Cl)cc1NC(=O)c1ccco1 | > 4 mM (inactive) |
| COC(=O)CSc1n[nH]c(N)n1 | > 4 mM (inactive) |
| N#Cc1cc2ccccc2nc1N | > 4 mM (inactive) |
| O=c1[nH]c2ccc(S(=O)(=O)NC3CC3)cc2[nH]1 | > 4 mM (inactive) |
| CC(=O)O[C@H]1C[C@@H](OC(C)=O)C(C)(C)C2C[C@@H](OC(C)=O)[C@]3(C)C([C@H](OC(C)=O)C[C@@]4(C)[C@H](c5ccoc5)OC(=O)[C@H]5O[C@]543)[C@]21C (stereo not given in full) | > 4 mM (inactive) |
| COc1ccc([C@H]2Oc3c(I)c(OC)cc(OC)c3C[C@@H]2O)cc1OC | > 4 mM (inactive) |
| CCSc1nc(C)c(CC)c(C)c1C(N)=O | > 4 mM (inactive) |
| CC(=O)c1cc(CN2C(=O)c3ccccc3C2=O)cs1 | > 4 mM (inactive) |
| O=C(Nc1ccccc1)NC1CCS(=O)(=O)C1 (stereo not given) | > 4 mM (inactive) |
| CC1(C)C(=O)C=C[C@@]2(C)C1CC(=O)[C@]1(C)C2CC[C@@]2(C)[C@H](c3ccoc3)OC(=O)[C@H]3O[C@]321 (stereo not given in full) | > 4 mM (inactive) |
| O=C(O)c1cccnc1 | > 4 mM (inactive) |
| O=C(NC(=S)NCc1cccnc1)c1ccco1 | > 4 mM (inactive) |
| CNC(=O)C(=O)Nc1ccc(F)cc1 | > 4 mM (inactive) |
| O=C1CCCCCN1CO | > 4 mM (inactive) |

| SMILES | Kd |
| --- | --- |
| O=C(NCc1ccco1)c1cccc(F)c1 | > 4 mM (inactive) |
| CN(C)S(=O)(=O)c1cccc(N)c1 | > 4 mM (inactive) |
| O=C(c1ccco1)N1CCn2c1nc1ccccc12 | > 4 mM (inactive) |
| Cc1noc(C)c1CSc1nc2ccccc2[nH]1 | > 4 mM (inactive) |
| Nc1cc(=O)[nH]c(=O)n1-c1ccccc1 | > 4 mM (inactive) |
| O=c1c2ccccc2nc2n1CCCCN2 | > 4 mM (inactive) |
| CNS(=O)(=O)c1cc(OC)ccc1OC | > 4 mM (inactive) |
| CS(=O)(=O)c1cccc(C(=O)Nc2nccs2)c1 | > 4 mM (inactive) |
| CC(=O)O[C@@H]1CC2C(C)(C)C(=O)[C@@H]3O[C@@H]3[C@]2(C)C2CC[C@]3(C)C(=CC(=O)O[C@H]3c3ccoc3)[C@@]21C (stereo not given in full) | > 4 mM (inactive) |
| NC(=O)c1ccc2c(c1)OCO2 | > 4 mM (inactive) |
| O=[n+]1c(CO)c(CO)n([O-])c2ccccc21 | > 4 mM (inactive) |
| Nc1cc(F)nc(F)n1 | > 4 mM (inactive) |
| NC12CC3CC(C1)CC(CC(=O)O)(C3)C2 | > 4 mM (inactive) |
| C(=N\c1ncn[nH]1)/c1cccs1 | > 4 mM (inactive) |
| Cn1cnnc1SCC(=O)Nc1ccccc1 | > 4 mM (inactive) |
| CC(=O)c1ccc(Cc2cnc(N)s2)cc1 | > 4 mM (inactive) |
| c1ccc(-n2nnnc2Oc2cccc3cccnc23)cc1 | > 4 mM (inactive) |
| NCc1ccc2c(c1)OCCCO2 | > 4 mM (inactive) |
| O=C(O)CNS(=O)(=O)c1cccs1 | > 4 mM (inactive) |
| COc1ccc(Cl)cc1-c1n[nH]c(=S)n1C | > 4 mM (inactive) |
| Cc1ccc2cc(C(=O)O)ccc2n1 | > 4 mM (inactive) |
| CC(=O)O[C@@H]1CC2C(C)(C)[C@H](O)CC[C@]2(C)C2CC[C@@]3(C)[C@H](c4ccoc4)OC(=O)C4OC43[C@@]21C (stereo not given in full) | > 4 mM (inactive) |
| CC(=O)OCC(=O)[C@@]1(O)CCC2C3CC[C@@H]4C[C@H](O)CC[C@]4(C)C3C(=O)C[C@@]21C (stereo not given in full) | > 4 mM (inactive) |
